Entries after “also recorded” stand apart in the source; their conditions may differ.
Assays:
[1] = target: T1, CYP1A2 (Homo sapiens, UniProt P05177); test: Mechanism-based inhibition of human CYP1A2 in vitro; format: in vitro ADME
T1 sequence (P05177 1-516): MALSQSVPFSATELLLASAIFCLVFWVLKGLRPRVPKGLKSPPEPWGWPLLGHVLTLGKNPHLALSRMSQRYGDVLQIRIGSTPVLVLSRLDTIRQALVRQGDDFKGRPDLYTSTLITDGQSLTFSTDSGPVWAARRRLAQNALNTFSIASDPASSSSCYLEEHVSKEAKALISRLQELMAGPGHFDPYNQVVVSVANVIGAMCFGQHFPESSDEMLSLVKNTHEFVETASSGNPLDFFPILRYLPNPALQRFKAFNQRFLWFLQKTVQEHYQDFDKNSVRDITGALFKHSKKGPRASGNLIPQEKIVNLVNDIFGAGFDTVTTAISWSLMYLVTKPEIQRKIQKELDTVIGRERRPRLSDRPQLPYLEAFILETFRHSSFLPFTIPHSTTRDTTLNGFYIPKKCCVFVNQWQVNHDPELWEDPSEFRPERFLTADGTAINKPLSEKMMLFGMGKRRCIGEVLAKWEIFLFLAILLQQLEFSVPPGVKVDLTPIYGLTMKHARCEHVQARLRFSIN

[2] = clinical; details: human, plasma, CK-2017357 Cmax, 14 days, ALS patients
[3] = ALS patients
[4] = Previous clinical experiments with CK-2017357 once a day in the morning; format: in vivo, human
Description: In previous clinical experiments, 1-(ethylpropyl)-6-ethynylimidazo[4,5-b]pyrazin-2-ol (CK-2017357) has been administered once a day in the morning. While improvements in patient and investigator global assessments, muscle fatigability and pulmonary function have been observed in these studies, dizziness has been a dose-limiting adverse event in both healthy volunteers and in patients with ALS. This example examines whether the maximum tolerable total daily dose of CK-2017357 can be increased by dividing the daily dose into two portions (morning and evening), and beginning treatment with a low dose and titrating upward to a target of 250 mg twice daily.

[5] = Example 4: twice-daily dose titration regimen of CK-2017357 in patients with ALS; format: in vivo
Description: Patients enrolled in this clinical study were randomized, double-blind, and placebo-controlled.
Placebo patients underwent a similar dummy dose titration to maintain the blind. FIG. 4 illustrates the study design.

[6] = tested on: human hepatic microsomes; details: in vitro; high concentrations required; cited from earlier work
[7] = repeated single daily doses 125-375 mg

Compound `C#Cc1cnc2nc(O)n(C(CC)CC)c2n1` [CK-2017357, 6-Ethynyl-1-(pentan-3-yl)-1H-imidazo[4,5-b]pyrazin-2(3H)-one] has a KI (inactivation) ([1]; read-out: K1 (inactivation constant)) of 1900 nM, a kinact ([1]; read-out: kinact (max rate constant for inactivation) (converted)) of 0.000517 s⁻¹ and a Cmax ([2]; 50 mg, CK-2017357 daily dose 125 (mg), On Riluzole (50 mg daily)) of 6000 ng/mL. The Cmax ([2]; 50 mg, CK-2017357 daily dose 250 (mg), On Riluzole (50 mg daily)) was 8400 ng/mL, the Cmax ([2]; 50 mg, CK-2017357 daily dose 375 (mg), On Riluzole (50 mg daily)) was 13500 ng/mL and the Cmax ([2]; 125 mg, CK-2017357 daily dose 125 (mg), No Riluzole) was 4100 ng/mL. For the same compound, the Cmax ([2]; 250 mg, CK-2017357 daily dose 250 (mg), No Riluzole) was 7400 ng/mL, the Cmax ([2]; 375 mg, CK-2017357 daily dose 375 (mg), No Riluzole) was 12700 ng/mL and the “dose dependence of CK-2017357 pharmacokinetics” value ([3]; 125, 250, 375 mg daily for 14 days) was “increased proportionally by dose; also recorded: predictable linear kinetics”. The “adverse event frequencies in the presence of riluzole” value ([3]; at any dose of CK-2017357) was “not altered”, the “plasma levels achieved steady state by” value [3, 7] was no more than 8 days and the “time to reach steady state” value [3, 7] was no more than 1 week. The “plasma level four hours after dosing on Day 8 higher than four hours after first dose on Day 1” value ([3]; repeated single daily doses) was “approximately 70%”, the “effect of riluzole on CK-2017357 Cmax / plasma levels” value ([3]; riluzole 50 mg daily vs none) was “no apparent effect of riluzole; also recorded: not affected” and the dose-limiting adverse event ([4]; healthy volunteers and patients with ALS) was “dizziness”. The “patient and investigator global assessments, muscle fatigability and pulmonary function” value ([4]; previous clinical experiments) was “improvements”, the “safety and tolerability of twice-daily dose titration regimen” value ([5]; ALS patients) was “safe and well tolerated” and the “ALSFRS-R score and MVV” value ([5]; CK-2017357 relative to placebo, ALS patients) was “Encouraging trends toward increases”. For the same compound, the “patients in whom dizziness was self-limited” value ([5]; of 12 patients in whom it occurred) was 6 patients, the “patients in whom dizziness was mild” value ([5]; of the 12 patients in whom it occurred) was 10 patients and the “patients escalated to the highest total daily dose of 500 mg and completing three weeks of dosing” value ([5]; of the 21 patients randomized to CK-2017357, twice-daily titration, riluzole 50 mg QD) was 14 patients. For the same compound, the “most commonly reported treatment-emergent adverse event” value ([5]; twice-daily dose titration 250-500 mg total daily, ALS patients) was “dizziness”.
For `CN(C)CCC=C1c2ccccc2CCc2ccccc21` [amitriptyline], the “inhibition of the metabolism of riluzole by human hepatic microsomes” value (“inhibition of the metabolism of riluzole” for short) [6] is listed as “inhibition has been observed”.
In the case of `CN(C)CCCN1c2ccccc2CCc2ccc(Cl)cc21` [clomipramine], the “inhibition of the metabolism of riluzole” value [6] is listed as “inhibition has been observed”.
For `O=C(O)Cc1ccccc1Nc1c(Cl)cccc1Cl` [diclofenac], the “inhibition of the metabolism of riluzole” value [6] is listed as “inhibition has been observed”.
In the case of `CO[C@]12C[C@@H](COC(=O)c3cncc(Br)c3)CN(C)[C@@H]1Cc1cn(C)c3cccc2c13` [nicergoline], the “inhibition of the metabolism of riluzole” value [6] is listed as “inhibition has been observed”.

Reference: US10272082B2, “Combination ALS therapy” (Cytokinetics, Inc., priority 2011, dated 2019)
